Measurements published in the supplement of paper PMC10307832.

Legend:
Test in all cases: relative viability (nuclei count vs DMSO), 5 days (fraction); higher = more cells survive
AGI-6780 + Bortezomib = compound: O=C(Nc1cccc(C(F)(F)F)c1)Nc1cc(S(=O)(=O)NC2CC2)ccc1-c1ccsc1 [AGI-6780] + CC(C)C[C@H](NC(=O)[C@H](Cc1ccccc1)NC(=O)c1cnccn1)B(O)O [Bortezomib] (partner 0.002 µM)
In short: (§1)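 Values are medians from duplicate plates. Each reflects relative viability, defined as the nuclei count of treated wells over that of vehicle wells. Lung cancer cell lines in 1536-well plates were pin-tool dosed one day after seeding with one drug alone or with a fixed anchor-drug dose plus five library-drug doses (not always all listed) in √10 steps, then fixed, stained and imaged at 4× after 5 days.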

AGI-6780 + Lapatinib = compound: O=C(Nc1cccc(C(F)(F)F)c1)Nc1cc(S(=O)(=O)NC2CC2)ccc1-c1ccsc1 [AGI-6780] + CS(=O)(=O)CCNCc1ccc(-c2ccc3ncnc(Nc4ccc(OCc5cccc(F)c5)c(Cl)c4)c3c2)o1 [Lapatinib] (partner 2 µM)
In short: as §1

AGI-6780 + AZD7762 = compound: O=C(Nc1cccc(C(F)(F)F)c1)Nc1cc(S(=O)(=O)NC2CC2)ccc1-c1ccsc1 [AGI-6780] + NC(=O)Nc1cc(-c2cccc(F)c2)sc1C(=O)N[C@H]1CCCNC1 [AZD7762] (partner 0.2 µM)
In short: as §1

AGI-6780 + Decitabine = compound: O=C(Nc1cccc(C(F)(F)F)c1)Nc1cc(S(=O)(=O)NC2CC2)ccc1-c1ccsc1 [AGI-6780] + Nc1ncn([C@H]2C[C@H](O)[C@@H](CO)O2)c(=O)n1 [Decitabine] (partner 2 µM)
In short: as §1

RERF-LC-KJ
relative viability (AGI-6780 + Bortezomib; first compound 0.08 µM): 1.06 | relative viability (AGI-6780 + Bortezomib; first compound 0.253 µM): 1.16 | relative viability (AGI-6780 + Bortezomib; first compound 0.8 µM): 1.15 | relative viability (AGI-6780 + Bortezomib; first compound 2.53 µM): 0.798 | relative viability (AGI-6780 + Bortezomib; first compound 8 µM): 1.09 | relative viability (AGI-6780 + Lapatinib; first compound 0.08 µM): 0.828 | relative viability (AGI-6780 + Lapatinib; first compound 0.253 µM): 0.923 | relative viability (AGI-6780 + Lapatinib; first compound 0.8 µM): 0.788 | relative viability (AGI-6780 + Lapatinib; first compound 2.53 µM): 0.675 | relative viability (AGI-6780 + Lapatinib; first compound 8 µM): 0.859 | relative viability (AGI-6780 + AZD7762; first compound 0.08 µM): 0.853 | relative viability (AGI-6780 + AZD7762; first compound 0.253 µM): 0.811 | relative viability (AGI-6780 + AZD7762; first compound 0.8 µM): 1.04 | relative viability (AGI-6780 + AZD7762; first compound 2.53 µM): 0.777 | relative viability (AGI-6780 + AZD7762; first compound 8 µM): 0.952 | relative viability (AGI-6780 + Decitabine; first compound 0.08 µM): 0.634 | relative viability (AGI-6780 + Decitabine; first compound 0.253 µM): 0.698 | relative viability (AGI-6780 + Decitabine; first compound 0.8 µM): 0.829 | relative viability (AGI-6780 + Decitabine; first compound 2.53 µM): 0.644 | relative viability (AGI-6780 + Decitabine; first compound 8 µM): 0.611
